Results reported in PubChem BioAssay AID540351 (The Scripps Research Institute Molecular Screening Center, 2011).
Active and inactive are the calls of the source. No rule for the calls is given here.

Columns and labels:
Assay in all cases: off-target receptor, channel and CYP panel, profiling panel, selectivity assay for S1P3 agonist project, biochemical, Ricerca HitProfilingScreen, CYP450 (AID 540351)
Sigma 1 = settings: Ricerca receptor/enzyme binding panel plus CYP450, at 30 µM, hits give high values
[1] = molecular target: Muscarinic acetylcholine receptor M2 (Homo sapiens) (UniProt P08172); settings: Ricerca receptor/enzyme binding panel plus CYP450, at 30 µM, hits give high values
[2] = molecular target: Beta-2 adrenergic receptor (Homo sapiens) (UniProt P07550); settings: Ricerca receptor/enzyme binding panel plus CYP450; Adrenergic beta2; at 30 µM; hits give high values
Histamine H1 = settings: Ricerca receptor/enzyme binding panel plus CYP450, at 30 µM, hits give high values
Adenosine A1 = settings: Ricerca receptor/enzyme binding panel plus CYP450, at 30 µM, hits give high values
[3] = molecular target: Cytochrome P450 2C9 (Homo sapiens) (UniProt P11712); settings: Ricerca receptor/enzyme binding panel plus CYP450; CYP450, 2C9; at 30 µM; hits give high values
Adrenergic alpha1A = settings: Ricerca receptor/enzyme binding panel plus CYP450, at 30 µM, hits give high values
[4] = molecular target: Cytochrome P450 2D6 (Homo sapiens) (UniProt P10635); settings: Ricerca receptor/enzyme binding panel plus CYP450; CYP450, 2D6; at 30 µM; hits give high values
CYP450, 2C19 = settings: Ricerca receptor/enzyme binding panel plus CYP450, at 30 µM, hits give high values
Cannabinoid CB1 = settings: Ricerca receptor/enzyme binding panel plus CYP450, at 30 µM, hits give high values
Adrenergic beta1 = settings: Ricerca receptor/enzyme binding panel plus CYP450, at 30 µM, hits give high values
[5] = molecular target: Voltage-gated inwardly rectifying potassium channel KCNH2 (Homo sapiens) (UniProt Q12809); settings: Ricerca receptor/enzyme binding panel plus CYP450; Potassium Channel hERG; at 30 µM; hits give high values
[6] = molecular target: 5-hydroxytryptamine receptor 2B (Homo sapiens) (UniProt P41595); settings: Ricerca receptor/enzyme binding panel plus CYP450; Serotonin (5-Hydroxytryptamine) 5-HT2B; at 30 µM; hits give high values
Opiate mu (OP3, MOP) = settings: Ricerca receptor/enzyme binding panel plus CYP450, at 30 µM, hits give high values
[7] = molecular target: Cytochrome P450 1A2 (Homo sapiens) (UniProt P05177); settings: Ricerca receptor/enzyme binding panel plus CYP450; CYP450, 1A2; at 30 µM; hits give high values
Nicotinic Acetylcholine = settings: Ricerca receptor/enzyme binding panel plus CYP450, at 30 µM, hits give high values
[8] = molecular target: Cytochrome P450 3A4 (Homo sapiens) (UniProt P08684); settings: Ricerca receptor/enzyme binding panel plus CYP450; CYP450, 3A4; at 30 µM; hits give high values
Calcium Channel L-Type = settings: Ricerca receptor/enzyme binding panel plus CYP450, Dihydropyridine, at 30 µM, hits give high values
Adenosine A2A = settings: Ricerca receptor/enzyme binding panel plus CYP450, at 30 µM, hits give high values
[9] = system: Transporter, Norepinephrine (NET); settings: Ricerca receptor/enzyme binding panel plus CYP450, at 30 µM, hits give high values
Glutamate NMDA = settings: Ricerca receptor/enzyme binding panel plus CYP450, Phencyclidine, at 30 µM, hits give high values
Adrenergic alpha1B = settings: Ricerca receptor/enzyme binding panel plus CYP450, at 30 µM, hits give high values
GABAA = settings: Central, at 30 µM, hits give high values
[10] = system: Alpha-2A adrenergic receptor (Homo sapiens) + Histamine H1 receptor (Homo sapiens) + Mu-type opioid receptor (Homo sapiens); settings: Ricerca receptor/enzyme binding panel plus CYP450; at 30 µM; hits give high values
[11] = molecular target: Alpha-2A adrenergic receptor (Homo sapiens) (UniProt P08913); settings: Ricerca receptor/enzyme binding panel plus CYP450; Adrenergic alpha2A; at 30 µM; hits give high values
[12] = molecular target: D(1A) dopamine receptor (Homo sapiens) (UniProt P21728); settings: Ricerca receptor/enzyme binding panel plus CYP450; Dopamine D1; at 30 µM; hits give high values
Prostanoid EP4 = settings: Ricerca receptor/enzyme binding panel plus CYP450, at 30 µM, hits give high values
Sodium Channel, Site 2 = settings: Ricerca receptor/enzyme binding panel plus CYP450, at 30 µM, hits give high values
[13] = molecular target: Muscarinic acetylcholine receptor M3 (Homo sapiens) (UniProt P20309); settings: Ricerca receptor/enzyme binding panel plus CYP450, at 30 µM, hits give high values
Dopamine D2 = settings: Ricerca receptor/enzyme binding panel plus CYP450, at 30 µM, hits give high values

Chain of Cytochrome P450 2C9 (Homo sapiens) (P11712 whole entry, looked up): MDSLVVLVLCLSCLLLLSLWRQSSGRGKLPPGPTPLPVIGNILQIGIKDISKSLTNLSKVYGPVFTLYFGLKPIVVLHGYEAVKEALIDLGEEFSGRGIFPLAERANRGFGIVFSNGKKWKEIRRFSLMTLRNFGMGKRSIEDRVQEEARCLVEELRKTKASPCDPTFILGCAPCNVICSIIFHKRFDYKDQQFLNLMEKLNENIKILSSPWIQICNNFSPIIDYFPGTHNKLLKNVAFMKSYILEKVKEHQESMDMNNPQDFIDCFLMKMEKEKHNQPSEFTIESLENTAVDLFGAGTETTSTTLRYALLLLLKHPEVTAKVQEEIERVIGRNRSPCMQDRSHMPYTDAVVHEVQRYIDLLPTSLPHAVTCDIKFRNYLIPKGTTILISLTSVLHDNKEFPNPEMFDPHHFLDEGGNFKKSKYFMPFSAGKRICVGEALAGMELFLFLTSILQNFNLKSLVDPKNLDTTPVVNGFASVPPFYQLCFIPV
Chain of Cytochrome P450 2D6 (Homo sapiens) (P10635 whole entry, looked up): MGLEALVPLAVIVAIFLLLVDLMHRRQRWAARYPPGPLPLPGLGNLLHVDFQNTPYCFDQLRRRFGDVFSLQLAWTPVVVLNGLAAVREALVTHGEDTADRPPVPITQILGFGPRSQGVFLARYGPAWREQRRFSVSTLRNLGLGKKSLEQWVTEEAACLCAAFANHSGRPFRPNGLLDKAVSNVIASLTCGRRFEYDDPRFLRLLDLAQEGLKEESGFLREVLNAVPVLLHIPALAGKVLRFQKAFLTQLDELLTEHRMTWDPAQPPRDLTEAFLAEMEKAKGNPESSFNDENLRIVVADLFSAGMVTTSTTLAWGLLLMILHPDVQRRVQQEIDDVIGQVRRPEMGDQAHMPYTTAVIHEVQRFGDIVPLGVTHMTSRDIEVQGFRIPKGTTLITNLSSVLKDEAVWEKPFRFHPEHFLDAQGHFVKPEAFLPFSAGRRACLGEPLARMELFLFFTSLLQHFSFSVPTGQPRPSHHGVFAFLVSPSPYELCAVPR
Chain of Muscarinic acetylcholine receptor M3 (Homo sapiens) (P20309 whole entry, looked up): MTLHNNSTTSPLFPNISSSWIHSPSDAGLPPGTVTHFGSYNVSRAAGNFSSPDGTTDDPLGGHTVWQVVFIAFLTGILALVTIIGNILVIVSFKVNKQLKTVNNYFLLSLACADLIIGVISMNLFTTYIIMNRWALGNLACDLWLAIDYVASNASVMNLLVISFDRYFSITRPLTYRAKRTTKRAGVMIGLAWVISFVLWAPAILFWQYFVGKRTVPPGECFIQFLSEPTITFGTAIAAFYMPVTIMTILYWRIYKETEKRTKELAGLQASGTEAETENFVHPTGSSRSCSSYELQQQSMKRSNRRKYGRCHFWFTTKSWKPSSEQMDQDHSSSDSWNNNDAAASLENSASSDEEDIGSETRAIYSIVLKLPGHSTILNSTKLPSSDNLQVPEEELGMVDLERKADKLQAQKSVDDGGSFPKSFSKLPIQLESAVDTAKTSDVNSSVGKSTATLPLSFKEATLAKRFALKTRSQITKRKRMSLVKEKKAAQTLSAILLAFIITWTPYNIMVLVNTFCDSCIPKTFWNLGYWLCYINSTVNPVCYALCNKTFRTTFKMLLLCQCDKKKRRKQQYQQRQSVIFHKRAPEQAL
Chain of Cytochrome P450 3A4 (Homo sapiens) (P08684 whole entry, looked up): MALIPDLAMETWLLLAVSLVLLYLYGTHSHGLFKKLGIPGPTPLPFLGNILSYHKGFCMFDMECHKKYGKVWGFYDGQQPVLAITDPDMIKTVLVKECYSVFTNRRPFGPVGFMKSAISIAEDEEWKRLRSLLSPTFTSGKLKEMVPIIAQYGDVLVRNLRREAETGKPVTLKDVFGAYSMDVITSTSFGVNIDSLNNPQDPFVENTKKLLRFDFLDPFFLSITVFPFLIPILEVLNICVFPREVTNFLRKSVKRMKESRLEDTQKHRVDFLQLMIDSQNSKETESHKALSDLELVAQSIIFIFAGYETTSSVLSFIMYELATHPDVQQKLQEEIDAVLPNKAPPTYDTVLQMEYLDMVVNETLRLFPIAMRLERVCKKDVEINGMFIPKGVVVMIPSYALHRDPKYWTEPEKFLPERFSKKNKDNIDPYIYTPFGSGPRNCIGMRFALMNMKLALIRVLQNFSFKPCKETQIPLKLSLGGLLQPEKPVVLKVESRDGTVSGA
Chain of Muscarinic acetylcholine receptor M2 (Homo sapiens) (P08172 whole entry, looked up): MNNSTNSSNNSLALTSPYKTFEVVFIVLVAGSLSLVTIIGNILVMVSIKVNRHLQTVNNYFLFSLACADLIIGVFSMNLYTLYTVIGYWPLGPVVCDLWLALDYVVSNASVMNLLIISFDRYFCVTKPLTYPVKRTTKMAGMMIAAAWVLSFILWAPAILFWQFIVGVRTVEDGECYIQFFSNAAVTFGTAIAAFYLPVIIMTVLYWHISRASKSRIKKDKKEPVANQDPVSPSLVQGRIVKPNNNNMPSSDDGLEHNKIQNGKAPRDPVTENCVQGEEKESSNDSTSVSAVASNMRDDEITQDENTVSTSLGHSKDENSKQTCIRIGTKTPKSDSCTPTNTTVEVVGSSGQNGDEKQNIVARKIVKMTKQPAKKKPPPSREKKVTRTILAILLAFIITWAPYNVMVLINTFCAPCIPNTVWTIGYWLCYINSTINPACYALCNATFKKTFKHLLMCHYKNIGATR
Chain of Cytochrome P450 1A2 (Homo sapiens) (P05177 whole entry, looked up): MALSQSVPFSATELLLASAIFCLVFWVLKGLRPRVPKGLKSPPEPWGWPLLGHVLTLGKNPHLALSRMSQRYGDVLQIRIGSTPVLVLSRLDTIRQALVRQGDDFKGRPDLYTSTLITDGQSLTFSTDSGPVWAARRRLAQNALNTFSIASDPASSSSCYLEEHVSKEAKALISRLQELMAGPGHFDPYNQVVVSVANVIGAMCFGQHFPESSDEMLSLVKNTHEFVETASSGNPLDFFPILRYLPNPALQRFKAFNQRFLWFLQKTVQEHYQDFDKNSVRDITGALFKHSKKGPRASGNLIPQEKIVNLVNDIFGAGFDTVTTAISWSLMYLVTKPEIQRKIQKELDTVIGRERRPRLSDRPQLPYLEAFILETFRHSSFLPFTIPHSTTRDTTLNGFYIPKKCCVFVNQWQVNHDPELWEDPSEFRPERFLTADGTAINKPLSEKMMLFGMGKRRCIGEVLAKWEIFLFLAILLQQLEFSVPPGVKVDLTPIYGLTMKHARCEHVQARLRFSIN
Chain of Alpha-2A adrenergic receptor (Homo sapiens) (P08913 whole entry, looked up): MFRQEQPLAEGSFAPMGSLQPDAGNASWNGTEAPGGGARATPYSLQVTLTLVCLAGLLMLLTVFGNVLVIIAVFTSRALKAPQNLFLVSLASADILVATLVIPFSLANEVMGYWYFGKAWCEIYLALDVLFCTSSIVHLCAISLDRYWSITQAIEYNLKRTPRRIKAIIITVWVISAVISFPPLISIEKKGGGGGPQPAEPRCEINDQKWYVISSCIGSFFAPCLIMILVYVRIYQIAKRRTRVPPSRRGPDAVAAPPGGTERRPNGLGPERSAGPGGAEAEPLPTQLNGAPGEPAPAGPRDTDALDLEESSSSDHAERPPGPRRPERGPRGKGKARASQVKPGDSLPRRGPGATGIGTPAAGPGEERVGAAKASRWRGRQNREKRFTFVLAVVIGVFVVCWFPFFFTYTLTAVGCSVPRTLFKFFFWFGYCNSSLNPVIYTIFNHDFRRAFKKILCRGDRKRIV
Chain of 5-hydroxytryptamine receptor 2B (Homo sapiens) (P41595 whole entry, looked up): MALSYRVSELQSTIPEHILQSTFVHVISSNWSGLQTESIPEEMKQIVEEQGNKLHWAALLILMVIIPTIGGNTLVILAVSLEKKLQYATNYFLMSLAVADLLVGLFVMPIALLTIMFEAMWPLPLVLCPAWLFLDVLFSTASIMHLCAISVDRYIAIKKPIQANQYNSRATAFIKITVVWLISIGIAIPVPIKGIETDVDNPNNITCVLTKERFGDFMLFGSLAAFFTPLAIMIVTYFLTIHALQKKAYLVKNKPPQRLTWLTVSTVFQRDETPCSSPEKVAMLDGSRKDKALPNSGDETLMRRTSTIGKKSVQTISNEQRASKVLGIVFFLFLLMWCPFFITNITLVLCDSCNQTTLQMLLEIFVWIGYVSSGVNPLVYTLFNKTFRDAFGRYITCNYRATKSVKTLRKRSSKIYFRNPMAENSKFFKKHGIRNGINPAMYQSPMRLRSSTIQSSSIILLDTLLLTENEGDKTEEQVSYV
Chain of Beta-2 adrenergic receptor (Homo sapiens) (P07550 whole entry, looked up): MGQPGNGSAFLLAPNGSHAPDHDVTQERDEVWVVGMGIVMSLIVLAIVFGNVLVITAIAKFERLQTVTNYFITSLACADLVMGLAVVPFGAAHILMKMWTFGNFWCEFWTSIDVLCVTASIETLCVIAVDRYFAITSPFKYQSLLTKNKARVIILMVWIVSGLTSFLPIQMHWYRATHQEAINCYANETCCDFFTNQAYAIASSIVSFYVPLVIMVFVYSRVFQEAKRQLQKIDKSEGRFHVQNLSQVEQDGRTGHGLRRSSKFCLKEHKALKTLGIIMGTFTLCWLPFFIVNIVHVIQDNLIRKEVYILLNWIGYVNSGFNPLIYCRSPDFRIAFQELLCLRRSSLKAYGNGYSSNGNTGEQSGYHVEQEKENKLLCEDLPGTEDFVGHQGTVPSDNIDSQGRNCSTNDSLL
Chain of D(1A) dopamine receptor (Homo sapiens) (P21728 whole entry, looked up): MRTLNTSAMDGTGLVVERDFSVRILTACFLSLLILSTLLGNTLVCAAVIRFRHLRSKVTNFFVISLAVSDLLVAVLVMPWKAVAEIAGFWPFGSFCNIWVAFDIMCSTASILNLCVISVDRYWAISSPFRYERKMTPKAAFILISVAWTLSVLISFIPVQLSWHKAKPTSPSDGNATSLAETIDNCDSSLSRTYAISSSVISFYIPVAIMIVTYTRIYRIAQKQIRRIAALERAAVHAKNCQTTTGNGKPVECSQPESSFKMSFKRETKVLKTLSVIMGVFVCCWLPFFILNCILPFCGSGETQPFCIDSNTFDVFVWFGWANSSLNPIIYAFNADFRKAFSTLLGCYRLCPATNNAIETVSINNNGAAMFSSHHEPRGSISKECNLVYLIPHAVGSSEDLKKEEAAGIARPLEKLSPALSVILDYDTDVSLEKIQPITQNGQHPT

O=C(c1cc(C2CC2)on1)N(C1CCCCC1)C1CCCCC1
inhibition (Sigma 1): 16% (inactive)
inhibition [1]: -1% (inactive)
inhibition [2]: -1% (inactive)
inhibition (Histamine H1): 51%
inhibition (Adenosine A1): 38% (inactive)
inhibition [3]: 24% (inactive)
inhibition (Adrenergic alpha1A): 21% (inactive)
inhibition [4]: -26% (inactive)
inhibition (CYP450, 2C19): 68%
inhibition (Cannabinoid CB1): 58%
inhibition (Adrenergic beta1): 45% (inactive)
inhibition [5]: 42% (inactive)
inhibition [6]: 20% (inactive)
inhibition (Opiate mu (OP3, MOP)): 38% (inactive)
inhibition [7]: 0% (inactive)
inhibition (Nicotinic Acetylcholine): -50%
inhibition [8]: 74%
inhibition (Calcium Channel L-Type): 28% (inactive)
inhibition (Adenosine A2A): 5% (inactive)
inhibition [9]: 52%
inhibition (Glutamate NMDA): 1% (inactive)
inhibition (Adrenergic alpha1B): 13% (inactive)
inhibition (GABAA; Ricerca receptor/enzyme binding panel plus CYP450, Flunitrazepam): 1% (inactive)
inhibition (GABAA; Ricerca receptor/enzyme binding panel plus CYP450, Muscimol): -2% (inactive)
inhibition [10]: -2% (inactive)
inhibition [11]: 34% (inactive)
inhibition [12]: 21% (inactive)
inhibition (Prostanoid EP4): 32% (inactive)
inhibition (Sodium Channel, Site 2): 59%
inhibition [13]: 47% (inactive)
inhibition (Dopamine D2): -1% (inactive)
